This is an account of results in patent US9296758B2, “2-quinolinyl-acetic acid derivatives as HIV antiviral compounds” (GILEAD SCIENCES, INC., priority 2010, dated 2016).

A word on the EC50: it is the concentration at which the effect is half-maximal. Higher therefore signals a less potent agent.

The assay deals with HIV-IIIb. In words: Test A: Antiviral Assays in MT4 Cells. Type of assay: cell-based. As to conditions: MT-4 cells infected with HIV-IIIb (0.004 m.o.i.), 5 days of incubation, CellTiter-Glo chemiluminescence readout. Summed up: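 MT-4 cells pre-infected with HIV-IIIb (0.004 m.o.i.) or mock-infected, 2000 cells per well, were exposed to 10 three-fold serial compound dilutions in quadruplicate in RPMI 1640 with 10% FBS. After 5 days at 37° C, cell viability read by CellTiter-Glo chemiluminescence.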
(In ATP-based viability assays light output follows the ATP content of the culture.)

The mark [1] stands for this setting: Human immunodeficiency virus 1, IIIB, MT4, 120 h.

As for `CNc1ccc2c(-c3ccc(Cl)cc3)c([C@H](OC(C)(C)C)C(=O)O)c(C)cc2n1` [Compound 31, (S)-2-tert-butoxy-2-(5-(4-chlorophenyl)-7-methyl-2-(methylamino)quinolin-6-yl)acetic acid], under setting [1], the midpoint of the response, the EC50, lay at 105 nM.

`Cc1cc2nc(C(F)(F)F)ccc2c(-c2ccc(Cl)cc2)c1[C@H](OC(C)(C)C)C(=O)O` [Compound 7J, (S)-2-tert-butoxy-2-(5-(4-chlorophenyl)-7-methyl-2-(trifluoromethyl)quinolin-6-yl)acetic acid]: the EC50 under setting [1] was 160 nM.

With `Cc1ccc2c(-c3ccc(Cl)cc3)c([C@H](OC(C)(C)C)C(=O)O)c(C)cc2n1` [Compound 2K, (S)-2-tert-butoxy-2-(5-(4-chlorophenyl)-2,7-dimethylquinolin-6-yl)acetic acid], the EC50 under setting [1] came out at 55 nM.

`Cc1cc2nc(C(F)F)ccc2c(-c2ccc3c4c(ccnc24)CCO3)c1[C@H](OC(C)(C)C)C(=O)O` [Compound 99, (S)-2-tert-butoxy-2-((R)-2-(difluoromethyl)-5-(2,3-dihydropyrano[4,3,2-de]quinolin-7-yl)-7-methylquinolin-6-yl)acetic acid] gave an EC50 of 12 nM.

Consider `Cc1cc2nc(-c3ccn[nH]3)ccc2c(-c2ccc(Cl)cc2)c1[C@H](OC(C)(C)C)C(=O)O` [Compound 70, (S)-2-tert-Butoxy-2-(5-(4-chlorophenyl)-7-methyl-2-(1H-pyrazol-5-yl)quinolin-6-yl)acetic acid], for which the EC50 under setting [1] stood at 206 nM.

In turn, `CNCc1ccc2c(-c3ccc(Cl)cc3)c([C@H](OC(C)(C)C)C(=O)O)c(C)cc2n1` [Compound 10, (S)-2-tert-Butoxy-2-(5-(4-chlorophenyl)-7-methyl-2-((methylamino)methyl)quinolin-6-yl)acetic acid] yielded an EC50 under setting [1] of 897 nM.

Consider `C#Cc1ccc2c(-c3ccc4c5c(ccnc35)CCO4)c([C@H](OC(C)(C)C)C(=O)O)c(C)cc2n1` (atropisomer, axis not shown) [Compound 45, (S)-2-tert-butoxy-2-((R)-5-(2,3-dihydropyrano[4,3,2-de]quinolin-7-yl)-2-ethynyl-7-methylquinolin-6-yl)acetic acid], for which it took 29200 nM to reach a half-maximal effect under setting [1] (EC50).

Under setting [1], `Cc1cc2nc(CN(C)C)ccc2c(C2=CCCCC2)c1[C@H](OC(C)(C)C)C(=O)O` [Compound 25, (S)-2-tert-butoxy-2-(5-cyclohexenyl-2-((dimethylamino)methyl)-7-methylquinolin-6-yl)acetic acid] gave an EC50 of 346 nM.

Under setting [1], `CCc1ccc2c(-c3ccc(Cl)cc3)c([C@H](OC(C)(C)C)C(=O)O)c(C)cc2n1` [Compound 26, (S)-2-tert-butoxy-2-(5-(4-chlorophenyl)-2-ethyl-7-methylquinolin-6-yl)acetic acid] came in with an EC50 of 45 nM.

On to `Cc1cc2nc(-c3cncn3C)ccc2c(-c2ccc3c4c(ccnc24)CCO3)c1[C@H](OC(C)(C)C)C(=O)O` (atropisomer, axis not shown) [Compound 83, (S)-2-tert-Butoxy-2-((R)-5-(2,3-dihydropyrano[4,3,2-de]quinolin-7-yl)-7-methyl-2-(1-methyl-1H-imidazol-5-yl)quinolin-6-yl)acetic acid], for which the EC50 under setting [1] worked out at 42 nM.

On to `Cc1cc2c(ccc3nc(-c4ccccc4)cn32)c(-c2ccc3c4c(ccnc24)CCO3)c1[C@H](OC(C)(C)C)C(=O)O` (atropisomer, axis not shown) [Compound 61, (S)-2-tert-Butoxy-2-((R)-6-(2,3-dihydropyrano[4,3,2-de]quinolin-7-yl)-8-methyl-2-phenylimidazo[1,2-a]quinolin-7-yl)acetic acid], for which the EC50 under setting [1] worked out at 119 nM.

The compound `C=CCCc1ccc2c(-c3ccc4c5c(ccnc35)CCO4)c([C@H](OC(C)(C)C)C(=O)O)c(C)cc2n1` (atropisomer, axis not shown) [Compound 48, (S)-2-((R)-2-(but-3-enyl)-5-(2,3-dihydropyrano[4,3,2-de]quinolin-7-yl)-7-methylquinolin-6-yl)-2-tert-butoxyacetic acid] came in with an EC50 under setting [1] of 26 nM.
